PMC4393269, “Carvacrol Codrugs: A New Approach in the Antimicrobial Plan” (PLoS ONE, 2015)
Values after ≈ are worked out from the molar mass of the structure shown. Like-named read-outs stand apart in the source and are kept apart here.

How the values were obtained:
[1] = test system: C. albicans ATCC 10231; assay: Broth microdilution MIC/MFC; type: cell-based; conditions: Candida albicans, ATCC10231
Method: Two Gram-positive (S. aureus ATCC 29213 and S. epidermidis ATCC 35984) and two Gram-negative (E. coli ATCC 8739 and P. aeruginosa ATCC 9027) strains, and one fungal strain (C. albicans ATCC 10231) were used for the detection of antibacterial activity of carvacrol, NAC, Ac-Cys(Allyl)-OH, and carvacrol codrugs 1–10. All tested compounds were dissolved in 20% DMSO to prepare the stock solution (100 mg/mL). The final concentration of DMSO in each well appeared to be not toxic for all studied microorganisms, as confirmed by the solvent control test included in the study.
The MIC detection of C. albicans ATCC 10231 was performed using the broth microdilution method according to EUCAST guidelines in RPMI 1640 plus 2% glucose with a final inoculum of 1–5 x 10^5 CFU/mL for 24–48 h at 37°C. The Minimum Fungicidal Concentration (MFC) was determined as the lowest concentration of substances at which no fungal growth occurred on Sabouraud agar plates.
Data were obtained from at least three independent experiments performed in duplicate. The susceptibility of the bacterial strains against ciprofloxacin was used as an internal standard during MIC determinations.

[2] = Kinetics of enzymatic hydrolysis in plasma; type: in vitro ADME; conditions: 37°C; for half-life at 40 µg/mL: pH 7.4, read-out: t½ (converted)
Method: (§1) The HPLC system consisted of a Waters 600 HPLC pump (Waters Corporation, Milford, MA, USA), equipped with a Waters 2996 photodiode array detector. The column was a Kinetex RP-C8 column (3.0 x 150 mm, 5 μm). The mobile phase consisted of 0.1% TFA in acetonitrile/0.1% TFA in 95% H2O and 5% acetonitrile 50:50, under isocratic conditions at a flow rate of 1 mL/min. The UV detector was set at a length of 220 nm.
The enzymatic hydrolysis was evaluated in human and rat plasma. […] A volume of 200 μL of this solution was added with pre-heated (37°C) plasma fractions (4 mL) previously diluted with 0.02 M phosphate buffer (pH 7.4) to give a final volume of 5 mL (80% plasma). Aliquots (100 μL) were taken at various times and deproteinized by mixing with 200 μL of 0.01 M HCl in methanol. After centrifugation for 5 min at 5000 × g, 10 μL of the supernatant layer were analysed by chromatography as described above. The amounts of remaining intact compound were plotted as a function of incubation time.

[3] = Kinetics of chemical hydrolysis in buffers; type: physicochemical; conditions: for half-life at 9.1 µM: read-out: t½ (converted)
Method: as §1
[…] Reactions were initiated by adding 1 mL of 10^-4 M stock solution (in acetonitrile) of the compound to 10 mL of the appropriate aqueous buffer solution, containing 20% acetonitrile. At appropriate time intervals, samples of 20 μL were withdrawn and analyzed by HPLC. Pseudo-first-order rate constants (kobs) for the hydrolysis of the compounds were then calculated from the slopes of the linear plots of log (% residual compound) against time. The experiments were run in triplicate and the mean values of the rate constants were calculated.

[4] = Drug stability in simulated gastric fluid with pepsin; type: in vitro ADME; conditions: 37°C, read-out: t½ (converted)
Method: as §1
(§2) To assess enzymatic stability, hydrochloric buffer with pepsin (10 or 40 mg/mL) and phosphate buffer with pancreatin (10 or 40 mg/mL) were used. Buffer solution (250 μL) was preincubated at 37°C and 50 μL of drug stock solution (50 μM in ethanol and FASSIF 1:9) were added and shaken at 37°C and 650 rpm. Samples of 100 μL were withdrawn at various times and 100 µL of ice-cold acetonitrile containing 0.5 v/v% formic acid were added to stop enzymatic activity. Samples were vortexed and centrifuged at 2°C and 10000 rpm for 10 min. The drug content in the supernatant was analyzed by HPLC.

[5] = test system: pepsin; assay: as above; type: in vitro ADME; conditions: for kobs: 37°C
Method: as §1, §2

[6] = test system: C. albicans ATCC 10231; assay: Antibiofilm assay on established biofilm (BIC/BEC); type: cell-based
Method: (§3) The efficacy on established biofilm was evaluated by determining Biofilm Inhibitory Concentration (BIC) and Biofilm Eradication Concentration (BEC) according to the method described by Johnson et al. with some modifications. Bacterial suspensions, grown in Tryptic soy broth supplemented with 0.5% (v/v) glucose at logarithmic phase, as well as C. albicans grown in RPMI 1640 plus 2% glucose, were incubated on flat-bottomed microtiter plates at a concentration of 5 x 10^5 CFU/mL. After 24 h of incubation at 37°C, the planktonic cells were gently removed and wells were washed with sterile phosphate-buffered saline solution (PBS) pH 7.3 and filled with carvacrol, carvacrol codrug 4, Ac-Cys(Allyl)-OH with dilutions ranging from the MIC values to a maximum concentration of 50 mg/mL. The OD600 was measured at time 0 and after incubation for 24 h at 37°C. The BIC values were determined as the lowest concentrations where no growth occurred in the supernatant fluid, confirmed by no increase in optical density compared with the initial reading. The BEC values were determined as the lowest concentrations at which no bacterial growth occurred on Tryptic soy agar for bacteria and on Sabouraud agar for C. albicans. Data were obtained from at least three independent experiments performed in duplicate.

[7] = test system: S. epidermidis ATCC 35984; assay: Antibiofilm assay on established biofilm (BIC/BEC); type: cell-based
Method: as §3

[8] = test system: S. aureus ATCC 29213; assay: Antibiofilm assay on established biofilm (BIC/BEC); type: cell-based; conditions: S. aureus ATCC 29213 established biofilm
Method: as §3

[9] = test system: P. aeruginosa ATCC 9027; assay: Antibiofilm assay on established biofilm (BIC/BEC); type: cell-based
Method: as §3

[10] = test system: E. coli ATCC 8739; assay: Antibiofilm assay on established biofilm (BIC/BEC); type: cell-based
Method: as §3

Compound: C=CCSC[C@H](NC(C)=O)C(=O)Oc1cc(C(C)C)ccc1C [codrug 4, N-Ac-Cys(Allyl)-CAR]
- MIC ([1]; C. albicans ATCC 10231, 24–48 h at 37°C, read-out: MIC): 1250 µg/mL (≈ 3.73 mM)
- MFC ([1]; C. albicans ATCC 10231, read-out: MFC): 1250 µg/mL (≈ 3.73 mM)
- kobs ([2]; 80% human plasma): 1.38 (± 0.03) h^-1
- kobs ([2]; 80% rat plasma): 1.38 (± 0.05) h^-1
- half-life at 40 µg/mL ([2]; 80% human plasma): 0.5 h
- half-life at 40 µg/mL ([2]; 80% rat plasma): 0.5 h
- half-life at 9.1 µM ([3]; aqueous buffer pH 5.0, pH 5.0, 37°C): 62.1 h
- half-life at 9.1 µM ([3]; hydrochloric acid buffer pH 1.3 (non-enzymatic SGF), pH 1.3, 37°C): 75.4 h
- kobs ([3]; pH 1.3, 37°C): 0.009 (± 0.001) h^-1
- kobs ([3]; pH 7.4, 37°C): 0.030 (± 0.001) h^-1
- half-life at 9.1 µM ([3]; phosphate buffer pH 7.4 (non-enzymatic SIF), pH 7.4, 37°C): 22.9 h
- half-life at 8.3 µM ([4]; simulated gastric fluid with pepsin 10 mg/mL, pH 1.3, SGF pH 1.3, pepsin 10 mg/mL): > 74 h
- half-life at 8.3 µM ([4]; simulated gastric fluid with pepsin 40 mg/mL, pH 1.3, SGF pH 1.3, pepsin 40 mg/mL): 5.79 h
- kobs ([5]; SGF pH 1.3, pepsin 10 mg/mL): 0.009 (± 0.001) h^-1
- kobs ([5]; SGF pH 1.3, pepsin 40 mg/mL): 0.119 (± 0.003) h^-1
- stability at pH 1.3 respect to pH 7.4 ([5]; in the presence of pepsin and pancreatin (10 mg/mL)): 13 fold
- BEC as multiple of MIC ([6]; C. albicans ATCC 10231): 8MIC
- BIC as multiple of MIC ([6]; C. albicans ATCC 10231): 8MIC
- BEC ([6]; C. albicans ATCC 10231 established biofilm): 10 mg/mL
- BIC ([6]; C. albicans ATCC 10231 established biofilm, 24 h): 10 mg/mL
- BEC as multiple of MIC ([7]; S. epidermidis ATCC 35984): 8MIC
- BIC as multiple of MIC ([7]; S. epidermidis ATCC 35984): 2MIC
- BEC ([7]; S. epidermidis ATCC 35984 established biofilm): 20 mg/mL
- BIC ([7]; S. epidermidis ATCC 35984 established biofilm, 24 h): 5 mg/mL
- BEC [8]: 10 mg/mL
- BIC ([8]; 24 h): 5 mg/mL
- BEC as multiple of MIC ([9]; P. aeruginosa ATCC 9027): 2MIC
- BEC ([9]; P. aeruginosa ATCC 9027 established biofilm): 10 mg/mL
- BIC ([9]; P. aeruginosa ATCC 9027 established biofilm, 24 h): 5 mg/mL
- BEC as multiple of MIC ([10]; E. coli ATCC 8739): 16MIC
- BIC as multiple of MIC ([10]; E. coli ATCC 8739): 8MIC
- BEC ([10]; E. coli ATCC 8739 established biofilm): 40 mg/mL
- BIC ([10]; E. coli ATCC 8739 established biofilm, 24 h): 20 mg/mL
